Measured values taken from patent US20220386606A1, “SPECIFICALLY SUBSTITUTED 3-PHENYL-5-SPIROCYCLOPENTYL-3-PYRROLIN-2-ONES AND THEIR USE AS HERBICIDES” (Bayer Aktiengesellschaft, priority 2019, published 2022).

Columns and labels:
VIOTR = experiment: Pre-emergence herbicidal action against VIOTR; type: in vivo, Viola tricolor; conditions: 320 g/ha
How it was run: (§1)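 Percent activity (0% = like control, 100% = dead) read visually after a 3-week greenhouse period. Application: aqueous WP or EC formulations sprayed onto soil covering sown seeds, water rate 600 to 800 L/ha with 0.2% wetting agent.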

ALOMY [1] = experiment: Pre-emergence herbicidal action against ALOMY; type: in vivo, Alopecurus myosuroides; conditions: 320 g/ha, scored visually after 3 weeks vs untreated controls
How it was run: as §1

AVEFA [2] = experiment: Post-emergence herbicidal action against AVEFA; type: in vivo, Avena fatua; conditions: 80 g/ha, visual assessment after about 3 weeks
How it was run: (§2)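 Visual scoring about 3 weeks after treatment gave % herbicidal action relative to untreated plants (0% = control-like, 100% = plants dead). Compounds, as WP or EC with 0.2% wetting agent, were sprayed onto green parts at 600–800 l/ha. Plants had reached the one-leaf stage, 2–3 weeks after sowing in sandy loam under greenhouse conditions.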

DIGSA [3] = experiment: Post-emergence herbicidal action against DIGSA; type: in vivo, Digitaria sanguinalis; conditions: 80 g/ha, visual assessment about 3 weeks after treatment vs untreated controls
How it was run: as §2

AMARE = experiment: Pre-emergence herbicidal action against AMARE; type: in vivo, Amaranthus retroflexus; conditions: 320 g/ha
How it was run: as §1

ECHCG [4] = experiment: Post-emergence herbicidal action against ECHCG; type: in vivo, Echinochloa crus-galli; conditions: 80 g/ha, visual assessment about 3 weeks after treatment vs untreated controls
How it was run: as §2

LOLRI [5] = experiment: Post-emergence herbicidal action against LOLRI; type: in vivo, Lolium rigidum; conditions: 80 g/ha, visual assessment about 3 weeks after treatment vs untreated controls
How it was run: as §2

ABUTH = experiment: Post-emergence herbicidal action against ABUTH; type: in vivo, Abutylon threophrasti; conditions: 80 g/ha, visual assessment about 3 weeks after treatment vs untreated controls
Procedure: Seeds of monocotyledonous and dicotyledonous weed and crop plants are laid out in sandy loam soil in wood-fiber pots, covered with soil and cultivated in a greenhouse under good growth conditions. 2 to 3 weeks after sowing, the test plants are treated at the one-leaf stage. The compounds of the invention, formulated in the form of wettable powders (WP) or as emulsion concentrates (EC), are then sprayed onto the green parts of the plants as aqueous suspension or emulsion at a water application rate equating to 600 to 800 l/ha with addition of 0.2% wetting agent. After the test plants have been left to stand in the greenhouse under optimal growth conditions for about 3 weeks, the action of the preparations is assessed visually in comparison to untreated controls (herbicidal action in percent (%): 100% activity=the plants have died, 0% activity=like control plants).

DIGSA [6] = experiment: Pre-emergence herbicidal action against DIGSA; type: in vivo, Digitaria sanguinalis; conditions: 320 g/ha, scored visually after 3 weeks vs untreated controls
How it was run: as §1

LOLRI [7] = experiment: Pre-emergence herbicidal action against LOLRI (Table 8, titled post-emergence at 320 g/ha); type: in vivo, Lolium rigidum; conditions: table stands in the pre-emergence section
How it was run: as §1

ALOMY [8] = experiment: Post-emergence herbicidal action against ALOMY; type: in vivo, Alopecurus myosuroides; conditions: 80 g/ha, visual assessment after about 3 weeks
How it was run: as §2

SETVI [9] = experiment: Pre-emergence herbicidal action against SETVI; type: in vivo, Setaria viridis; conditions: 320 g/ha, scored visually after 3 weeks vs untreated controls
How it was run: as §1

MATIN = experiment: Pre-emergence herbicidal action against MATIN; type: in vivo; conditions: 320 g/ha
From the text: (§3) Seeds of monocotyledonous and dicotyledonous weed plants and crop plants are laid out in sandy loam soil in wood-fiber pots and covered with soil. The compounds of the invention, formulated in the form of wettable powders (WP) or as emulsion concentrates (EC), are then applied to the surface of the covering soil as aqueous suspension or emulsion at a water application rate equating to 600 to 800 L/ha with addition of 0.2% wetting agent.
(§4) After the treatment, the pots are placed in a greenhouse and kept under good growth conditions for the trial plants. The damage to the test plants is scored visually after a test period of 3 weeks by comparison with untreated controls (herbicidal activity in percent (%): 100% activity=the plants have died, 0% activity=like control plants).

VERPE = experiment: Pre-emergence herbicidal action against VERPE; type: in vivo, Veronica persica; conditions: 320 g/ha
From the text: as §3, §4

SETVI [10] = experiment: Post-emergence herbicidal action against SETVI; type: in vivo, Setaria viridis; conditions: 80 g/ha, visual assessment about 3 weeks after treatment vs untreated controls
How it was run: as §2

AVEFA [11] = experiment: Pre-emergence herbicidal action against AVEFA; type: in vivo, Avena fatua; conditions: 320 g/ha, scored visually after 3 weeks vs untreated controls
How it was run: as §1

ECHCG [12] = experiment: Pre-emergence herbicidal action against ECHCG; type: in vivo, Echinochloa crus-galli; conditions: 320 g/ha, scored visually after 3 weeks vs untreated controls
How it was run: as §1

Compound	Pre-emergence action against VIOTR in % (VIOTR)	Pre-emergence action against ALOMY in % (ALOMY [1])	Post-emergence action against AVEFA in % (AVEFA [2])	Post-emergence action against DIGSA in % (DIGSA [3])	Pre-emergence action against AMARE in % (AMARE)	Post-emergence action against ECHCG in % (ECHCG [4])	Post-emergence action against LOLRI in % (LOLRI [5])	Post-emergence action against ABUTH in % (ABUTH)	Pre-emergence action against DIGSA in % (DIGSA [6])	Pre-emergence herbicidal action against LOLRI in % (LOLRI [7])	Post-emergence action against ALOMY in % (ALOMY [8])	Pre-emergence action against SETVI in % (SETVI [9])	Pre-emergence action against MATIN in % (MATIN)	Pre-emergence action against VERPE in % (VERPE)	Post-emergence action against SETVI in % (SETVI [10])	Pre-emergence action against AVEFA in % (AVEFA [11])	Pre-emergence action against ECHCG in % (ECHCG [12])
CC#Cc1cc(C)c(C2=C(O)C3(CCC(COCC)C3)NC2=O)c(F)c1 (stereo not shown) [Example I-35]	100%	100%	80%	100%	90%	100%	100%	80%	100%	100%	100%	100%					
C#CCOCC1CCC2(C1)NC(=O)C(c1c(C)cc(C#CC)cc1Cl)=C2O (stereo not shown) [Example I-78]	100%	100%	80%	90%	100%	90%	90%		100%	100%	100%	100%	80%	90%	100%	90%	100%
CC#Cc1cc(Br)c(C2=C(OC(=O)OCC)C3(CCC(COCC)C3)NC2=O)c(OC)c1 (stereo not shown) [Example P-01]	100%	100%		100%	100%	100%	100%		100%	100%	100%	100%	80%	100%	100%	100%	100%
CC#Cc1cc(Br)c(C2=C(OC(=O)OCC)C3(CCC(COCC)C3)NC2=O)c(OC)c1 (stereo not shown) [Example P-05]	100%	100%		100%	100%	100%	100%		100%	100%	100%	100%	90%	80%	100%	100%	100%
CC#Cc1cc(C)c(C2=C(OC(=O)OCC)C3(CCC(COC)C3)NC2=O)c(OC)c1 (stereo not shown) [Example P-55]	100%	100%	100%	100%		100%	100%		100%	100%	100%	100%	90%	80%	100%	80%	100%
CC#Cc1cc(C)c(C2=C(OC(=O)C(C)C)C3(CCC(COCC)C3)NC2=O)c(F)c1 (stereo not shown) [Example P-56]	100%	100%	90%	100%	80%	100%	100%		100%	100%	100%	100%	80%		100%	80%	100%
CC#Cc1cc(F)c(C2=C(OC(=O)OCC)C3(CCC(COCC)C3)NC2=O)c(OC)c1 (stereo not shown) [Example P-61]		100%	80%	100%		100%	100%	80%	100%	100%	90%	100%		90%	100%	90%	100%
CC#Cc1cc(F)c(C2=C(OC(=O)C(C)C)C3(CCC(COCC)C3)NC2=O)c(OC)c1 (stereo not shown) [Example P-64]		100%	80%	100%		100%	100%	80%	100%	100%	100%	100%			100%	80%	90%
C#CCOCC1CCC2(C1)NC(=O)C(c1c(C)cc(C#CC)cc1OC)=C2OC(=O)OCC (stereo not shown) [Example P-101]	80%	100%	80%	90%	100%	100%	100%		100%	100%	100%	100%	80%		100%	100%	100%
C#CCOCC1CCC2(C1)NC(=O)C(c1c(C)cc(C#CC)cc1OC)=C2OC(=O)OCC (stereo not shown) [Example P-103]		100%	90%	100%	100%	100%	90%		100%	100%	100%	100%	90%	90%	100%	100%	100%
